Target: Granzyme B (human lymphocytes) (Homo sapiens (Human), UniProt P10144)
Assay: human Granzyme B biochemical assay
Conditions: not given
Excerpt: The compounds of Formula I-VIII described above can be tested using the human Granzyme B biochemical assay provided below.
Materials: • 1. Granzyme B (human lymphocytes) Enzyme: Enzo Lifesciences, Cat #ALX-200-602-0010 • 2. Substrate (Ac-IETD-AFC): Enzo Lifesciences, Cat #ALX-260-110-M010 • 3. Standard inhibitor (Compound 20-Isomer3): Synthesized internally in TCG • 4. Dimethyl sulfoxide (DMSO): Sigma-Aldrich, Cat #41639 • 5. HEPES: Gibco, Cat #15630-080 • 6. Calcium chloride: Sigma-Aldrich, Cat #C-5080 • 7. Distilled water: Gibco, Cat #15230-162 • 8. Bovine serum albumin (BSA): Sigma-Aldrich, Cat #A3059 • 9. Black, clear bottom PDL plate (384 wells): Greiner bio-one, Cat #781946 • 10. Polypropylene plate (384 wells): Corning, Cat #3657 Assay Buffer Composition:
Compound Preparation: • 1. DMSO is added to the respective compound vial to make 10 mM Compound stock solution, which is stored at −20° C. • 2. 10 mM Compound stock solution is thawed and 1 mM DMSO stock solution is prepared by adding 45 μl of DMSO to 5 μl of 10 mM compound stock solution. • 3. 1 mM DMSO stock solution is serially diluted (3.16 fold) by adding 10 μl of 1 mM DMSO stock to 21.6 μl of DMSO and mixed well. 10 μl of the resulting solution is then added to 21.6 μl of DMSO and mixed well. This process is continued to create 11 dilution points for the assay standard inhibitor and 8 dilution points for test compounds in 384 well polypropylene plate. • 4. 2 μl of each dilution are dispensed in assay ready plate. • 5. Each well is then diluted 25 fold by adding 48 μl of assay buffer to 2 μl of compound in assay ready plate to make Compound working stock. Enzyme Preparation: • 1. Supplied Granzyme B (human lymphocytes) enzyme is reconstituted to 1 mg/ml (about 31.25 μM) and 1 μl aliquots are kept in −80° C. • 2. 1 μl aliquot is diluted to 625 nM by adding 49 μl of assay buffer containing 0.1% BSA and gently mixed. • 3. 10 nM enzyme working stock is prepared by adding assay buffer containing 0.1% BSA. Substrate Preparation: • 1. Supplied substrate (Ac-IETD-AFC) is reconstituted by adding DMSO to make 10 mM stock, aliquoted and stored in −80° C. • 2. 4 mM substrate mid stock is prepared by adding DMSO. • 3. Substrate working stock i.e. 800 μM is prepared by adding assay buffer. Assay Protocol: • 1. 10 μl of serially diluted Compound working stock (start dose 40 μM) is added from assay ready plate to assay plate according to the plate map. • 2. Positive control (40 μM of standard inhibitor) and negative control (4% DMSO buffer) are added to the respective wells. • 3. 20 μl of Enzyme working stock is added to assay plate and gently mixed. • 4. The plate is incubated at 22° C. for 30 mins and spun at 130 g for 1 minute. • 5. After incubation, 10 μl of Substrate working stock is added to respective wells and mixed (Assay plate is maintained in dark after substrate addition). • 6. The plate is incubated at 22° C. for 60 mins and spun at 130 g for 1 minute. • 7. Fluorescence read (RFU) (Ex: 400 nm/Em: 505 nm) is taken after 60 mins in EnVision Multimode plate reader. Final Assay Concentration:
Data Analysis: • 1. The RFU read is analyzed to calculate percent inhibition by normalizing with positive and negative controls taken as 100% and 0% effect respectively in Microsoft excel. • 2. Graph is generated by putting the analyzed data in GraphPad prism 5.0 software to get IC50 value for each compound.

Chain of Granzyme B (human lymphocytes) (P10144 21-247): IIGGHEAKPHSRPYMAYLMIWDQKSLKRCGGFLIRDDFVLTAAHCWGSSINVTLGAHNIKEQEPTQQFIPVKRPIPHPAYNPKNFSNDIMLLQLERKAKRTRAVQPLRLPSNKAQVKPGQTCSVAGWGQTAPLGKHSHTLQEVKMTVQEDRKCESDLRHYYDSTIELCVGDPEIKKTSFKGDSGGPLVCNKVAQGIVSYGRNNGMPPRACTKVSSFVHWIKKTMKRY

Row | SMILES | IC50
1 | CC(C)[C@H](NC(=O)CF)C(=O)N[C@H]1COc2cccc3c2N(C1=O)[C@H](C(=O)NCc1c[nH]nn1)C3 [Compound C102, (1S,8S)-8-[(S)-2-(2-Fluoro-acetylamino)-3-methyl-butyrylamino]-9-oxo-1,2,8,9-tetrahydro-7H-6-oxa-9a-aza-benzo[cd]azulene-1-carboxylic acid (1H-[1,2,3]triazol-4-ylmethyl)-amide] | 0.001 to 0.3 µM

Same assay, conditions: Granzyme B (human lymphocytes) 5 nM, substrate Ac-IETD-AFC 200 μM, Cpd incubation with enzyme 30 mins, 22° C., read time 60 mins; read-out: IC50

Row | IC50 | SMILES
2 | 1 to 5 µM | O=C(N[C@H](C(=O)N[C@H]1CCc2cccc3c2N(C1=O)[C@H](C(=O)NCc1c[nH]nn1)C3)C1CCCCC1)c1ccccc1 [Compound C079, (2S,5S)-5-((S)-2-Benzoylamino-2-cyclohexyl-acetylamino)-4-oxo-1,2,4,5,6,7-hexahydro-azepino[3,2,1-hi]indole-2-carboxylic acid (1H-[1,2,3]triazol-4-ylmethyl)-amide]
3 | > 5 µM | CC(=O)N[C@H](C(=O)N[C@H]1CCc2cccc3c2N(C1=O)[C@H](C(=O)N[C@@H](C)C(=O)O)C3)C(C)C [Compound C089, (S)-2-{[(2S,5S)-5-((S)-2-Acetylamino-3-methyl-butyrylamino)-4-oxo-1,2,4,5,6,7-hexahydro-azepino[3,2,1-hi]indole-2-carbonyl]-amino}-propionicacid]
4 | > 5 µM | CC(=O)N[C@H]1CCc2cccc3c2N(C1=O)[C@H](C(=O)NCc1c[nH]nn1)C3 [Compound C148, (2S,5S)-5-Acetylamino-4-oxo-1,2,4,5,6,7-hexahydro-azepino[3,2,1-hi]indole-2-carboxylic acid (1H-[1,2,3]triazol-4-ylmethyl)-amide]
5 | > 5 µM | CC[C@H](C)[C@H](NC(=O)COCCF)C(=O)N[C@H]1CCc2cccc3c2N(C1=O)[C@H](C(=O)NCc1cc(Cl)cc(Cl)c1)C3 [Compound C133, (2S,5S)-5-{(2S,3S)-2-[2-(2-Fluoro-ethoxy)-acetylamino]-3-methyl-pentanoylamino}-4-oxo-1,2,4,5,6,7-hexahydro-azepino[3,2,1-hi]indole-2-carboxylic acid 3,5-dichloro-benzylamide]
6 | 1 to 5 µM | C[C@H](NC(=O)Cc1csc2ccccc12)C(=O)N[C@H]1CCc2cccc3c2N(C1=O)[C@H](C(=O)NCc1c[nH]nn1)C3 [Compound C002, (2S,5S)-5-[(S)-2-(2-Benzo[b]thiophen-3-yl-acetylamino)propionylamino]-4-oxo-1,2,4,5,6,7-hexahydro-azepino[3,2,1-hi]indole-2-carboxylic acid (1H-[1,2,3]triazol-4-ylmethyl)amide]
7 | > 5 µM | CC[C@H](C)[C@H](NC(=O)COCCF)C(=O)N[C@H]1CCc2cccc3c2N(C1=O)[C@H](C(=O)NCc1nc(O)n[nH]1)C3 [Compound C164, (2S,5S)-5-{(2S,3S)-2-[2-(2-Fluoro-ethoxy)-acetylamino]-3-methyl-pentanoylamino}-4-oxo-1,2,4,5,6,7-hexahydro-azepino[3,2,1-hi]indole-2-carboxylic acid (5-hydroxy-2H-[1,2,4]triazol-3-ylmethyl)-amide]
8 | > 5 µM | O=C(Cc1csc2ccccc12)NCC(=O)N[C@H]1CCc2cccc3c2N(C1=O)[C@H](C(=O)NCc1c[nH]nn1)C3 [Compound C001, (2S,5S)-5-[2-(2-Benzo[b]thiophen-3-yl-acetylamino)-acetylamino]-4-oxo-1,2,4,5,6,7-hexahydro-azepino[3,2,1-hi]indole-2-carboxylic acid (1H-[1,2,3]triazol-4-ylmethyl)-amide]
9 | 0.001 to 0.3 µM | CC[C@H](C)[C@H](NC(=O)c1cccnc1)C(=O)N[C@H]1CCc2cccc3c2N(C1=O)[C@H](C(=O)NCc1c[nH]nn1)C3 [Compound C067, (2S,5S)-5-{(2S,3S)-3-Methyl-2-[(pyridine-3-carbonyl)-amino]-pentanoylamino}-4-oxo-1,2,4,5,6,7-hexahydro-azepino[3,2,1-hi]indole-2-carboxylicacid (1H-[1,2,3]triazol-4-ylmethyl)-amide]
10 | 1 to 5 µM | CC(=O)N[C@@H](Cc1ccc(O)cc1)C(=O)N[C@H]1CCc2cccc3c2N(C1=O)[C@H](C(=O)NCc1c[nH]nn1)C3 [Compound C032, (2S,5S)-5-[(S)-2-Acetylamino-3-(4-hydroxy-phenyl)-propionylamino]-4-oxo-1,2,4,5,6,7-hexahydro-azepino[3,2,1-hi]indole-2-carboxylic acid(1H-[1,2,3]triazol-4-ylmethyl)amide]
11 | 1 to 5 µM | O=C(Cc1ccccc1)N[C@@H](Cc1ccccc1)C(=O)N[C@H]1CCc2cccc3c2N(C1=O)[C@H](C(=O)NCc1c[nH]nn1)C3 [Compound C015, (2S,5S)-4-Oxo-5-((S)-3-phenyl-2-phenylacetylamino-propionylamino)-1,2,4,5,6,7-hexahydro-azepino[3,2,1-hi]indole-2-carboxylic acid (1H-[1,2,3]triazol-4-ylmethyl)-amide]
12 | > 5 µM | CC[C@H](C)[C@H](NC(=O)COCCF)C(=O)N[C@H]1CCc2cccc3c2N(C1=O)[C@H](C(=O)NCc1cncs1)C3 [Compound C112, (2S,5S)-5-{(2S,3S)-2-[2-(2-Fluoro-ethoxy)-acetylamino]-3-methyl-pentanoylamino}-4-oxo-1,2,4,5,6,7-hexahydro-azepino[3,2,1-hi]indole-2-carboxylic acid (thiazol-5-ylmethyl)-amide]
13 | 0.001 to 0.3 µM | CC(C)[C@H](NC(=O)c1cccnc1)C(=O)N[C@H]1CCc2cccc3c2N(C1=O)[C@H](C(=O)NCc1c[nH]nn1)C3 [Compound C070, (2S,5S)-5-{(S)-3-Methyl-2-[(pyridine-3-carbonyl)-amino]-butyrylamino}-4-oxo-1,2,4,5,6,7-hexahydro-azepino[3,2,1-hi]indole-2-carboxylic acid (1H-[1,2,3]triazol-4-ylmethyl)-amide]
14 | 0.301 to 1 µM | CC(C)C[C@H](NC(=O)c1ccccc1)C(=O)N[C@H]1CCc2cccc3c2N(C1=O)[C@H](C(=O)NCc1c[nH]nn1)C3 [Compound C038, (2S,5S)-5-((S)-2-Benzoylamino-4-methyl-pentanoylamino)-4-oxo-1,2,4,5,6,7-hexahydro-azepino[3,2,1-hi]indole-2-carboxylic acid (1H-[1,2,3]triazol-4-ylmethyl)-amide]
15 | > 5 µM | CC[C@H](C)[C@H](NC(=O)COCCF)C(=O)N[C@H]1CCc2cccc3c2N(C1=O)[C@H](C(=O)NCc1ccccc1C)C3 [Compound C127, (2S,5S)-5-{(2S,3S)-2-[2-(2-Fluoro-ethoxy)-acetylamino]-3-methyl-pentanoylamino}-4-oxo-1,2,4,5,6,7-hexahydro-azepino[3,2,1-hi]indole-2-carboxylic acid 2-methyl-benzylamide]
16 | > 5 µM | CC[C@H](C)[C@H](NC(=O)COCCF)C(=O)N[C@H]1CCc2cccc3c2N(C1=O)[C@H](C(=O)NCc1cscn1)C3 [Compound C115, (2S,5S)-5-{(2S,3S)-2-[2-(2-Fluoro-ethoxy)-acetylamino]-3-methyl-pentanoylamino}-4-oxo-1,2,4,5,6,7-hexahydro-azepino[3,2,1-hi]indole-2-carboxylic acid (thiazol-4-ylmethyl)-amide]
17 | 0.001 to 0.3 µM | CC[C@H](C)[C@H](NC(=O)CC1Cc2ccccc2O1)C(=O)N[C@H]1CCc2cccc3c2N(C1=O)[C@H](C(=O)NCc1c[nH]nn1)C3 (stereo partly drawn) [Compound C173, (2S,5S)-5-[(2S,3S)-2-(2-2,3-Dihydro-benzofuran-2-yl-acetylamino)-3-methyl-pentanoylamino]-4-oxo-1,2,4,5,6,7-hexahydro-azepino[3,2,1-hi]indole-2-carboxylic acid (1H-[1,2,3]triazol-4-ylmethyl)-amide]
